Patent US20240299299A1, “COMPOSITIONS AND METHODS FOR INCREASING THE EFFICACY OF IMMUNOTHERAPIES AND VACCINES” (The Regents of the University of Michigan, priority 2021, published 2024)

Assays:
[1] = Encapsulation of DHB-based prodrugs in lipid-based formulation; type: physicochemical; conditions: oleic acid, Tween 80, PBS emulsion
Experimental: The DHB-based prodrugs were synthesized by the Medicinal Chemistry Core in University of Michigan. To prepare the formulation, the prodrug #201 or #905 (4 mg) was added to the mixture of oleic acid (45 μL) and Tween 80 (25 μL) and incubated overnight to equilibrate and allow the prodrug to dissolve. Then an aqueous phase consisting of PBS buffer was added, and the formulation emulsified by ultrasonication with an ultrasonic processor.

OT-I CD8+ T cells [2] = test: In vitro central memory (Tcm) differentiation of OT-I CD8+ T cells activated with SIINFEKL peptide and IL-2 with metabolites; type: cell-based, mice; conditions: day 8; metabolite-supplemented medium (arginine 3 mM, 3-methylhistidine 3 mM, DHB 100 μM, sodium ferulate 100 μM)
Experimental: FIG. 2: a) OT-I CD8+ T cells were cultured with different metabolites in vitro as indicated, b,c) shown is the frequency of CD44^+CD62L^+ Tcm CD8+ T cells on day 8. d) OT-I CD8+ T cells were activated with α-CD3/α-CD28 antibodies in presence of metabolites as indicated and shown is the Tcm CD8+ T cells on day 7. Data represent the mean±s.e.m. (n=5).
(§1) Splenocytes from OT-I mice were obtained aseptically. The cells were cultured in 96-well plates (1×10^5 cells per well). For Tcm differentiation study, cells were activated with SIINFEKL peptide (4×10^−9M) in the presence of various metabolites (arginine: 3 mM; 3-methylhistidine: 3 mM; N-acetylneuraminate: 100 μM; disodium sebacate: 100 μM; DHB: 100 μM; pantothenate: 100 μM; γ-aminobutyric acid: 100 μM; glycerol: 100 μM; AICAR: 100 μM, sodium ferulate: 100 μM) for 3 days. Then cells were washed three times with T-cell medium and further cultured with IL-2 (10 ng ml^−1; PeproTech) in the presence of metabolites for 5 days. The cells were then washed twice and re-activated with SIINFEKL peptide (10 μM) for 2 h. The suspension cells were collected, blocked with CD16/32 antibody and stained with the fixable viability dye eFluor 450, FITC-CD44 rat anti-human/mouse and PE-CD62L monoclonal antibody. To test if the central memory CD8+ T cells differentiation is dependent on dendritic cells, CD8 T cells isolated from the spleen in OT-I mice were incubated in the 96-well plate, which was precoated with anti-hamster IgG antibody. […] (1 μg mL^−1) and IL-2 (100 U mL^−1) were added into each well in the presence of 3-methylhistidine (3 mM), DHB (100 μM), or sodium ferulate (100 μM) for 2 days. Then cells were washed for three times to remove α-CD3/α-CD28 antibodies and further incubated with metabolites and IL-2 (10 ng ml^−1) for 5 days. Thereafter, cells were collected for central memory CD8^+ T cells analysis. For CD8^+ T cells survival study, cells were activated with antigen peptide as above, following with thoroughly washing, and incubation in presence of IL-2 for 2 days. Metabolites were added during this incubation (arginine: 3 mM, 1 mM; 3-methylhistidine: 3 mM, 1 mM, 500 μM, 100 μM; N-acetylneuraminate: 100 μM; disodium sebacate: 100 μM; DHB: 100 μM, 50 μM, 20 μM; pantothenate: 100 μM; γ-aminobutyric acid: 100 μM; glycerol: 100 μM; AICAR: 100 μM). Then cells were further incubated in absence of both IL-2 and metabolites for 36 h to induce the apoptosis/dead. For Tcf1^+CD8^+ differentiation study, cells were activated with antigen peptide as above, followed by thoroughly washing, and incubation with metabolites in presence of IL-2 for 3 days. […] Tcf1^+CD8^+, CD44^+CD62L^+CD8^+ and survival (stained with Annexin V-APC and PI) T cells were detected via flow cytometry.

OT-I CD8+ T cells [3] = test: CD8+ T cell survival upon IL-2 withdrawal (Annexin V/PI); type: cell-based, mice; conditions: dependent on the dose of metabolites
Experimental: FIG. 4: a) OT-I CD8+ T cells were cultured with different metabolites in vitro as indicated, b,c) shown are the level of survival CD8+ T cells (Annexin V^−PI^−) as well as the representative flow cytometry plots on day 5.5. Data represent the mean±s.e.m. (n=5).
as §1, with “days.” for “days. Metabolites were added during this incubation (arginine: 3 mM, 1 mM; 3-methylhistidine: 3 mM, 1 mM, 500 μM, 100 μM; N-acetylneuraminate: 100 μM; disodium sebacate: 100 μM; DHB: 100 μM, 50 μM, 20 μM; pantothenate: 100 μM; γ-aminobutyric acid: 100 μM; glycerol: 100 μM; AICAR: 100 μM). Then cells were further incubated in absence of both IL-2 and metabolites for 36 h to induce the apoptosis/dead. For Tcf1^+CD8^+ differentiation study, cells were activated with antigen peptide as above, followed by thoroughly washing, and incubation with metabolites in presence of IL-2 for 3 days.”

tumor = conditions: reported in literature (Geiger et al.); cited from earlier work
[4] = tested on: CT26 colon carcinoma cells; test: CT26 tumor model, oral prodrug-based lipid formulation plus α-PD-1; type: in vivo, BALB/c mice
Experimental: FIG. 9: a) Scheme showing the preparation of formulation encapsulating DHB prodrug. b) Therapeutic treatment regimen. BALB/c mice were s.c. inoculated with 1.5×10^5 CT26 colon carcinoma cells. The prodrug #201 (0.5 mg per dose) or #905 (1 mg per dose) were orally administrated every other day, respectively. 100 μg α-PD-1 was injected i.p. on days 11, 15, and 19. Shown are the (c) average tumor growth; AH1-specific CD8+ T cells in PBMCs on days (d) 18 and (e) 24. Tumor microenvironment analysis: (f) immune cells (CD45^+ cells) infiltration, (g) CD8^+ T cells, (h) CD44^+CD62L^+ central memory CD8+ T cells, and (i) AH1-specific CD8^+ T cells in tumor tissue on day 25. Data represent the mean±s.e.m. (n=5).
The CT26 tumor model was established as above. The formulation containing prodrug #201 or #905 was orally administered starting on day 8 and performed every other day. α-PD-1 antibody (100 μg per dose) was i.p. injected on days 11, 15, and 19. The PBMCs were obtained on days 18 and 24 and stained with PE-tagged peptide-MHC tetramer (H-2L^d-restricted SPSYVYHQF). Mice were euthanized on day 25 and tumor tissues were cut into small pieces and incubated with collagenase type IV (1 mg ml-1) and DNase I (0.1 mg ml-1) under gentle shaking. After 30 min, the cell suspension was filtered through a 70-μm strainer. The cells were washed with fluorescence-activated cell sorting (FACS) buffer and blocked with CD16/32 antibody. The cells were then stained with the designated antibodies: efluor450, FITC-CD44 rat anti-human/mouse, PE-CD62L monoclonal antibody, and APC-CD8 rat anti-mouse, PE-Tcf1/Tcf7 rabbit monoclonal antibody, APC-efluor780-Cd45 Rat anti Mouse (Clone: 30 F11), PE-AH1-specific tetramer. Cells were analyzed by flow cytometry.

[5] = tested on: immune checkpoint blockers (ICBs); conditions: reported in literature; cited from earlier work

With CCOC(=O)Oc1ccc(C(=O)OCC)cc1OC(=O)OCC [Prodrug #905, ethyl 3,4-bis((ethoxycarbonyl)oxy)benzoate] the “encapsulation in lipid-based dose forms” value [1] was “can be successfully encapsulated”.

In the case of N=C(N)NCCC[C@H](N)C(=O)O [L-arginine], the “differentiation of CD44+CD62L+ central memory CD8+ T cells” value (OT-I CD8+ T cells [2]) is given as “significantly increased the differentiation”, the “survival of activated CD8+ T cells” value (OT-I CD8+ T cells [3]) is given as “significantly increased the survival” and the “antitumor effect in vivo” value (tumor) is given as “improve the antitumor effect in vivo”.

With CCOC(=O)c1ccc(OC(=O)C(C)(C)C)c(OC(=O)C(C)(C)C)c1 [Prodrug #201, 4-(ethoxycarbonyl)-1,2-phenylene bis(2,2-dimethylpropanoate)] the “encapsulation in lipid-based dose forms” value [1] was “can be successfully encapsulated”, the “infiltration of immune cells (CD45+ cells), AH1-specific CD8+ T cells and CD44+CD62L+ central memory CD8+ T cells in tumor tissue” value ([4]; oral formulation plus α-PD-1, day 25) was “promoted the infiltration” and the “frequency of AH1-specific CD8+ T cells among PBMCs” value ([4]; oral formulation plus α-PD-1, days 18 and 24) was “increased the frequency”. For the same compound, the tumor growth ([4]; orally administered lipid formulation, 0.5 mg per dose every other day, plus α-PD-1) was “substantially slowed down the tumor growth”.

For CSCC[C@H](N)C(=O)O [methionine], the “efficacy of immune checkpoint blockers (ICBs)” value [5] is listed as “improve the efficacy of immune checkpoint blockers”.
